The test system of this test is infants with central diabetes insipidus. Put plainly: Pharmacodynamics. The test is classed as in vivo. The following applies: Case 2, IV administration of dDAVP; confirmed diagnosis of CDI.

One substance from paper PMC4338649 (International Journal of Endocrinology and Metabolism, 2014) can be followed below.

For the substance desmopressin [dDAVP], the “urine output and osmolality after IV administration” value was “Normalization of urine output and osmolality”.
